What is called IC50 is the concentration needed to halve the response being measured. As a reminder, the half-life is the time in which the quantity being followed falls by half. As a reminder, the ED50 is the midpoint of the dose-response relation.

The record followed here is ChEMBL document CHEMBL2177023, “Effects of antimalarial molecules on the gametocyte stage of Plasmodium falciparum: the debate” (J Med Chem, 2012).

Data set [1] has as its system Plasmodium falciparum. The data set is described as follows: Antimalarial activity against transgenic Plasmodium falciparum 3D7 GFP16B gametocytes. It is filed as functional, organism-based.
Data set [2] relates to Plasmodium falciparum. The data set is described as follows: Antimalarial activity against Plasmodium falciparum KT3 gametocytes. It is filed as functional, organism-based.
Data set [3] concerns Plasmodium falciparum. The data set is described as follows: Antimalarial activity against Plasmodium falciparum KT1 gametocytes. It is filed as functional, organism-based.
The subject of data set [4] is Plasmodium falciparum. The data set is described as follows: Antimalarial activity against Plasmodium falciparum gametocytes. It is filed as functional, organism-based.
In data set [5] the test system is Plasmodium falciparum. The data set is described as follows: Antimalarial activity against Plasmodium falciparum gametocytes by GFP-luciferase reporter gene assay. Type of data set: functional, organism-based. A general note: Reporter assays use an easily measured gene product as a stand-in for the process of interest.
Data set [6] in a line: (§1) Half life in human plasma. Type of data set: ADME, cell-free.
Data set [7] deals with Plasmodium berghei. The experiment in a line: Antimalarial activity against Plasmodium berghei infected in mosquitoes assessed as reduction in number of sporozoites. Type of data set: functional. More on the design: scale not given: the % may be the effect or the level left.
The subject of data set [8] is Plasmodium berghei. The data set is described as follows: Antimalarial activity against Plasmodium berghei infected in mosquitoes assessed as reduction in number of oocysts. More on the design: scale not given: the % may be the effect or the level left. It is filed as functional.
For data set [9], the system named is Plasmodium chabaudi. The experiment in a line: Antimalarial activity against Plasmodium chabaudi infected rat malaria model. It is filed as functional.
Data set [10] has as its system Plasma. The data set is described as §1. It is filed as ADME, cell-free.
For data set [11], the system named is Plasmodium falciparum. The experiment in a line: Antimalarial activity against Plasmodium falciparum stage 3 to 5 gametocytes. Type of data set: functional, organism-based.

Structures are written as SMILES.

Turning to `COc1ccc2nc3cc(Cl)ccc3c(Nc3cc(CN4CCCC4)c(O)c(CN4CCCC4)c3)c2n1` [PYRONARIDINE], the IC50 was found to be 23 nM in [1], 20 nM in [2] and 6 nM in data set [3].

`COc1cc(N[C@H](C)CCCN)c2nccc(C)c2c1Oc1ccc(Cl)c(Cl)c1` displayed an IC50 in [4] of 3800 nM.

Consider `CN(C)c1ccc2nc3ccc(=[N+](C)C)cc-3sc2c1` [METHYLENE BLUE CATION], for which the IC50 in data set [5] turned out to be 12 nM.

Take `C=C(NC(=O)C(=C)NC(=O)c1csc(C2=N[C@@H]3c4csc(n4)[C@H]4NC(=O)c5csc(n5)[C@H]([C@](C)(O)[C@@H](C)O)NC(=O)[C@H]5CSC(=N5)/C(=C/C)NC(=O)[C@H]([C@@H](C)O)NC(=O)c5csc(n5)[C@]3(CC2)NC(=O)[C@H](C)NC(=O)C(=C)NC(=O)[C@H](C)NC(=O)[C@H]([C@@H](C)CC)N[C@@H]2C=Cc3c([C@H](C)O)cc(nc3[C@H]2O)C(=O)O[C@@H]4C)n1)C(N)=O` [THIOSTREPTON]: the IC50 in data set [4] is below 10000 nM.

Regarding `COc1cc(C)c2c(Oc3cccc(C(F)(F)F)c3)c(OC)cc(NC(C)CCCN)c2n1` (stereo unspecified) [TAFENOQUINE], in [6], the half-life is 14 days.

For `COc1cc2cc(C(=O)Nc3cc(N)c4ccccc4c3CCCl)[nH]c2c(OC)c1OC` [CENTANAMYCIN], the results for the Activity in [7] and in [8] were 99% and 83%, respectively. In data set [9], this compound displayed an ED50 of 1.5 mg/kg.

Turning to `COc1cc(NC(C)CCCN)c2ncccc2c1` (stereo unspecified) [PRIMAQUINE], the results for the IC50 in data set [2] and in [3] were 2100 nM and 800 nM, respectively. In data set [10], this compound returned a t1/2 of 0.03 weeks.

Regarding `CN(C)Cc1ccc(Nc2c3ccccc3nc3ccccc23)cc1`, the IC50 in data set [2] and in [3] was 600 nM throughout.

In data set [11], `CC[C@H](C)[C@H](NC(=O)[C@H]([C@@H](C)CC)N(C)C(C)=O)C(=O)N[C@H](C(=O)N[C@@H](CC(C)C)C(=O)[C@@]1(C)CO1)[C@@H](C)O` [EPOXOMYCIN] yielded an IC50 of 2 nM.
